Read-outs that look alike come from different tables or passages of the source.
Legend:
CCK receptor (brain) = target: T1, CCK receptor (brain) (Cavia porcellus, UniProt H0VZC5); test: CCK Receptor Binding (Brain), inhibition of specific 125I-CCK-8 binding; design: species or system guinea pig (male Hartley)
T1 construct: the cortex was removed and homogenized in 25 mL ice-cold 0.32M sucrose; from tissue; host or cells: cortex of male Hartley guinea pigs, P2 membranes
T1 sequence (H0VZC5 1-426): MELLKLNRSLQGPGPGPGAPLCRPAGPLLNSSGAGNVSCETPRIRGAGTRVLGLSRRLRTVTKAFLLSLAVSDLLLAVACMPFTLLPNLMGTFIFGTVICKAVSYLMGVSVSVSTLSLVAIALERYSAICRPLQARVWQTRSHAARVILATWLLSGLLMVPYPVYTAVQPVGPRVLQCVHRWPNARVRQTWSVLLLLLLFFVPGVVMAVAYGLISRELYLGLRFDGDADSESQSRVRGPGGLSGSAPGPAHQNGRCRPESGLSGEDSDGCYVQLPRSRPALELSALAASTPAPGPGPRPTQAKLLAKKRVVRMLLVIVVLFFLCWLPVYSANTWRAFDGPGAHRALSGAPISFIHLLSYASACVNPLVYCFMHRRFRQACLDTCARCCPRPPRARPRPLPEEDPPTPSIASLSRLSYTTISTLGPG
Method: 2. CCK Receptor Binding (Brain)
CCK-8 sulphated was radiolabelled and the binding was performed according to the description for the pancreas method with minor modifications.
Male Hartley guinea pigs (300-500 g) were sacrificed by decapitation and the cortex was removed and homogenized in 25 mL ice-cold 0.32M sucrose. The homogenates were centrifuged at 1000 g for 10 minutes and the resulting supernatant was recentrifuged at 20,000 g for 20 minutes. The P2 pellet was resuspended in binding assay buffer (20mM HEPES, 5 mM MgCl2, 0.25 mg/ml bacitracin, 1 mM EGTA pH 6.5 at 25° C.), using a Teflon (trademark) homogenizer (5 strokes at 500 rpm) to give a final concentration of 10 mg original wet weight/1.2 ml buffer. […] All assays were run in duplicate. The reaction mixtures were incubated at 25° C. for 2 hours and then the reaction was terminated by rapid filtration (Brandell 24 well cell harvester) on Whatman GF/C filters with 3×5 ml washes of cold 100 mM NaCl. The radioactivity on the filters was counted with a LKB gamma counter.

CCK receptor (pancreas) = target: T2, CCK receptor (pancreas) (Rattus norvegicus, UniProt P30551); test: CCK Receptor Binding (Pancreas), inhibition of specific 125I-CCK-8 binding; design: species or system rat (male Sprague-Dawley)
T2 construct: The whole pancreas was dissected free of fat tissue and was homogenized; from tissue; host or cells: whole pancreas of male Sprague-Dawley rats, homogenate membranes
T2 sequence (P30551 1-444): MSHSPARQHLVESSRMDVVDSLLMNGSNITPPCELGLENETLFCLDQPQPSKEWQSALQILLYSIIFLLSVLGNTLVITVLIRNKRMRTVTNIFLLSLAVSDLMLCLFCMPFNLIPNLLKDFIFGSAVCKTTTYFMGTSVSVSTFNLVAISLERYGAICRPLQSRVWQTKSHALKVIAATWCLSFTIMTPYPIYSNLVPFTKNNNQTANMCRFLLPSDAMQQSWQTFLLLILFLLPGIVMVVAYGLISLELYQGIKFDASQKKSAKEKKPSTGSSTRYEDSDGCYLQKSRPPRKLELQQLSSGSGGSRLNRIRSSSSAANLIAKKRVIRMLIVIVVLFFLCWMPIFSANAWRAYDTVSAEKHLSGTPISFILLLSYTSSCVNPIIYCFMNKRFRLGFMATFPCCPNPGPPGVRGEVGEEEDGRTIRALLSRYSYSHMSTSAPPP
Method: 1. CCK Receptor Binding (Pancreas)
CCK-8 sulphated was radiolabelled with ^125 I-Bolton Hunter reagent (2000 Ci/mmole). Receptor binding was performed according to Chang and Lotti (Proc. Natl. Acad. Sci. 83, 4923-4926, 1986) with minor modifications.
Male Sprague-Dawley rats (150-200 g) were sacrificed by decapitation. The whole pancreas was dissected free of fat tissue and was homogenized in 25 volumes of ice-cold 10 mM N-2-hydroxyethyl-piperazine-N'-2-ethane sulphonic acid (HEPES) buffer with 0.1% soya bean trypsin inhibitor (pH 7.4 at 25° C.) with a Kinematica Polytron. The homogenates were centrifuged at 47,800 g for 10 min. Pellets were resuspended in 10 volumes of binding assay buffer (20 mM (HEPES)), 1 mM ethylene glycol-bis-(β-aminoethylether-N,N'-tetraacetic acid) (EGTA), 5 mM MgCl2, 150 mM NaCl, bacitracin 0.25 mg/ml, soya bean trypsin inhibitor 0.1 mg/ml, and bovine serum albumin 2 mg/ml pH 6.5 at 25° C.) using a Teflon (trademark) homogenizer, 15 strokes at 500 rpm. The homogenate was further diluted in binding assay buffer to give a final concentration of 0.5 mg original wet weight/1 ml buffer. […] All assays were run in duplicate. The reaction mixtures were incubated at 25° C. for 2 hours and the reaction terminated by rapid filtration (Brandell 24 well cell harvester) over Whatman GF/C filters, washing 3×4 mls with ice-cold 100 Mm NaCl. The radioactivity on the filters was counted with a LKB gamma counter.

[1] = guinea pig cortex membranes, 50 pM 125I-CCK-8, 25° C., 2 hours, pH 6.5, read-out: IC50 125I-CCK Brain
[2] = rat pancreas membranes, 50 pM 125I-CCK-8, 25° C., 2 hours, pH 6.5, read-out: IC50 125I-CCK Pancreas

Row | SMILES | IC50 (CCK receptor (brain); [1]) [nM] | IC50 (CCK receptor (pancreas); [2]) [nM] | IC50 (CCK receptor (pancreas)) [nM] | IC50 (CCK receptor (brain)) [nM]
1 | CN1C(=O)C(NC(=O)Nc2cccc(CNc3nnn[nH]3)c2)N=C(C2CCCCC2)c2ccccc21 (racemic) [Example 1, N-[3(R,S)-5-Cyclohexyl-2,3-dihydro-1-methyl-2-oxo-1H-1,4-benzodiazepin-3-yl]-N'-[3-{(tetrazol-5-yl)aminomethyl}phenyl]urea] | 0.82 | 9.5 |  | 
2 | CN1C(=O)C(C)(NC(=O)Nc2cccc(CNc3nnn[nH]3)c2)N=C(c2ccccc2)c2ccccc21 (racemic) [Example 15, N-[3-(R,S)-2,3-Dihydro-1,3-dimethyl-2-oxo-5-phenyl-1H-1,4-benzodiazepin-3-yl]-N'-[3-{(tetrazol-5-yl)aminomethyl}phenyl]urea] | 1300 |  | 42.8 | 
3 | Cc1ccc(NC(=O)NC2N=C(c3ccccc3)c3ccccc3N(C(C)(C)C)C2=O)cc1Nc1nnn[nH]1 (racemic) [Example 16, N-[3(R,S)-1-tert-Butyl-2,3-dihydro-2-oxo-5-phenyl-1H-1,4-benzodiazepin-3-yl]-N'-[4-methyl-3-{(tetrazol-5-yl)amino}phenyl]urea] | 497 |  | 3610 | 
4 | CN1C(=O)[C@H](NC(=O)Nc2cccc(N(C)c3nnn[nH]3)c2)N=C(C2CCCCC2)c2ccccc21 [Example 4, (+)-N-[3(R)-5-Cyclohexyl-2,3-dihydro-1-methyl-2-oxo-1H-1,4-benzodiazepin-3-yl]-N'-[3-{N-methyl-N-(tetrazol-5-yl)amino}phenyl]urea] | 0.1 | 400 |  | 
5 | CN1C(=O)[C@H](NC(=O)Nc2cccc(N(C)c3nn[nH]n3)c2)N=C(c2ccccc2)c2ccccc21 [Example 7, (+)-N-[3(R)-2,3-Dihydro-1-methyl-2-oxo-5-phenyl-1H-1,4-benzodiazepin-3-yl]-N'-[3-{N-methyl-N-(tetrazol-5-yl)amino}phenyl]urea] |  |  | > 3000 | 0.575
6 | CN1C(=O)[C@H](NC(=O)Nc2cccc(Nc3nn[nH]n3)c2)N=C(c2ccccc2)c2ccccc21 [Example 8, (+)-N-[3(R)-2,3-Dihydro-1-methyl-2-oxo-5-phenyl-1H-1,4-benzodiazepin-3-yl]-N'-[3-{(tetrazol-5-yl)amino}phenyl]urea] |  |  | > 3000 | 5.7
7 | CN1C(=O)[C@H](NC(=O)Nc2cccc(CNc3nn[nH]n3)c2)N=C(c2ccccc2)c2ccccc21 [Example 9, (+)-N-[3(R)-2,3-Dihydro-1-methyl-2-oxo-5-phenyl-1H-1,4-benzodiazepin-3-yl]-N'-[3-{(tetrazol-5-yl)aminomethyl}phenyl]urea] |  |  | > 3000 | 7.4
8 | Cc1ccc(NC(=O)N[C@@H]2N=C(C3CCCCC3)c3ccccc3N(C)C2=O)cc1N(C)c1nn[nH]n1 [Example 11, (+)-N-[3(R)-5-Cyclohexyl-2,3-dihydro-1-methyl-2-oxo-1H-1,4-benzodiazepin-3-yl]-N'-[4-methyl-3-{N-methyl-N-(tetrazol-5-yl)amino}phenyl]urea] |  | 600 |  | 
9 | CN1C(=O)[C@H](NC(=O)Nc2ccc3c(c2)N(c2nn[nH]n2)CC3)N=C(c2ccccc2)c2ccccc21 [Example 14, (+)-N-[3(R)-2,3-Dihydro-1-methyl-2-oxo-5-phenyl-1H-1,4-benzodiazepin-3-yl]-N'-[1-(tetrazol-5yl)indolin-6-yl]urea] |  |  |  | 0.11

Continued, in another order:

Row | IC50 (CCK receptor (brain); [1]) [nM] | IC50 (CCK receptor (pancreas); [2]) [nM] | SMILES | IC50 (CCK receptor (pancreas)) [nM] | IC50 (CCK receptor (brain)) [nM]
10 | 0.31 | 6.5 | CN1C(=O)C(NC(=O)Nc2cccc(Nc3nnn[nH]3)c2)N=C(C2CCCCC2)c2ccccc21 (racemic) [Example 2, N-[3(R,S)-5-Cyclohexyl-2,3-dihydro-1-methyl-2-oxo-1H-1,4-benzodiazepin-3-yl]-N'-[3-{(tetrazol-5-yl)amino}phenyl]urea] |  | 
11 | 0.11 | 10 | CN1C(=O)C(NC(=O)Nc2cccc(N(C)c3nnn[nH]3)c2)N=C(C2CCCCC2)c2ccccc21 (racemic) [Example 3, N-[3(R,S)-5-Cyclohexyl-2,3-dihydro-1-methyl-2-oxo-1H-1,4-benzodiazepin-3-yl]-N'-[3-{N-methyl-N-(tetrazol-5-yl)amino}phenyl]urea] |  | 
12 | 14 | 109 | CCCN1C(=O)C(NC(=O)Nc2cccc(CNc3ncc[nH]3)c2)N=C(C2CCCCC2)c2ccccc21 (racemic) [Example 18, N-[3(R,S)-5-Cyclohexyl-2,3-dihydro-2-oxo-1-propyl-1H-1,4-benzodiazepin-3-yl]N'-[3-[(1H-imidazol-2-ylamino)methyl]phenyl]urea] |  | 
13 | 82.9 | 1.33 | CCCN1C(=O)C(NC(=O)Nc2cccc(Nc3ncc[nH]3)c2)N=C(C2CCCCC2)c2ccccc21 (racemic) [Example 19, N-[3(R,S)-5-Cyclohexyl-2,3-dihydro-2-oxo-1-propyl-1H-1,4-benzodiazepin-3-yl]N'-[3-[(1H-imidazol-2-yl)amino]phenyl]urea] |  | 
14 | 33.9 | 84.5 | CN1C(=O)C(NC(=O)Nc2cccc(CNc3ncc[nH]3)c2)N=C(C2CCCCCC2)c2ccccc21 (racemic) [Example 20, N-[3(R,S)-5-Cycloheptyl-2,3-dihydro-1-methyl-2-oxo-1H -1,4-benzodiazepin-3-yl]N'-[3-[(1H-imidazol-2-ylamino)methyl]phenyl]urea] |  | 
15 | 0.93 | > 3000 | CCCN1C(=O)C(NC(=O)Nc2cccc(N(C)c3nnn[nH]3)c2)N=C(N2CCN(C)CC2)c2ccccc21 (single isomer, unassigned; (-)) [Example 17, (-)-N-[2,3-Dihydro-5-(4-methylpiperazin-1-yl)-2-oxo-1-propyl-1H-1,4-benzodiazepin-3-yl]-N'-[3-{N-methyl-N-(tetrazol-5-yl)amino}phenyl]urea] |  | 
16 | 0.7 | 200 | CN1C(=O)[C@H](NC(=O)Nc2cccc(Nc3nnn[nH]3)c2)N=C(C2CCCCC2)c2ccccc21 [Example 5, (+)-N-[3(R)-5-Cyclohexyl-2,3-dihydro-1-methyl-2-oxo-1H-1,4-benzodiazepin-3-yl]-N'-[3-{(tetrazol-5-yl)amino}phenyl]urea] |  | 
17 | 0.284 | 153 | CN1C(=O)[C@H](NC(=O)Nc2cccc(CNc3nnn[nH]3)c2)N=C(C2CCCCC2)c2ccccc21 [Example 6, (+)-N-[3(R)-5-Cyclohexyl-2,3-dihydro-1-methyl-2-oxo-1H-1,4-benzodiazepin-3-yl]-N'-[3-{(tetrazol-5-yl)aminomethyl}phenyl]urea] |  | 
18 | 0.042 | 802 | Cc1ccc(NC(=O)N[C@@H]2N=C(C3CCCCC3)c3ccccc3N(C)C2=O)cc1Nc1nnn[nH]1 [Example 10, (+)-N-[3(R)-5-Cyclohexyl-2,3-dihydro-1-methyl-2-oxo-1H-1,4-benzodiazepin-3-yl]-N'-[4-methyl-3-{(tetrazol-5-yl)amino}phenyl]urea] |  | 

— patent US5681833A, “Benzodiazepine derivatives” (Merck, Sharp & Dohme Ltd., priority 1992, dated 1997)
